Measured values: patent US5618795A, “Dibekacin derivatives and arbekacin derivatives active against resistant bacteria, and the production thereof” (Zaidan Hojin Biseibutsu Kagaku Kenkyu Kai, priority 1992, dated 1997)
≈ marks a conversion by molar mass, not a printed value. Read-outs that look alike come from different tables or passages of the source.

Columns and labels:
[1] = Solubility in water; assay type: physicochemical
[2] = Acute toxicity, single intravenous administration to mice; assay type: in vivo; details: mouse, in vivo; single intravenous administration; mice (ICR-strain, 4 weeks old, female); observations for two weeks; read-out: LD50
Excerpt: 50% Lethal dosages (LD50, observations for two weeks) of the new compounds of this invention as estimated upon single intravenous administration to mice (ICR-strain, 4 weeks old, female) are as follows:
50% Lethal dosages (LD50, observations for two weeks) of the new compounds of general formula (XVI) according to the seventh aspect of this invention as estimated upon single intravenous administration to mice (ICR-strain, 4 weeks old, female) are as follows: […]

[3] = system: Providencia rettgeri GN311; experiment: MIC by standard serial dilution method on Muller-Hinton's agar; assay type: cell-based
Description: (§1) Minimum growth inhibitory concentrations (MIC) of each of 2"-amino-2"-deoxyarbekacin (Compound Ia), 2"-amino-5,2"-dideoxyarbekacin (Compound Ib), 2"-amino-2"-deoxydibekacin (Compound IIa) and 2"-amino-5,2"-dideoxydibekacin (Compound IIb) against various bacteria (20 strains) and against clinically isolated strains of MRSA (50 strains) were determined by standard serial dilution method on Muller-Hinton's agar medium (as estimated after cultivating at 27° C. for 18 hours), and the test results obtained are shown in TABLE 3 and TABLE 4, respectively.
(§2) Minimum growth inhibitory concentrations (MIC) of each of 2"-amino-5,2"-dideoxy-5-epi-fluoroarbekacin (Compound XVIa) and 2"-amino-5,2"-dideoxy-5-epi-aminoarbekacin (Compound XVIb) against various bacteria (18 strains) and against clinically isolated strains of MRSA (50 strains) were determined by standard serial dilution method on Muller-Hinton's agar medium (as estimated after cultivation at 27° C. for 18 hours), and the test results obtained are shown in TABLE 5 and TABLE 6, respectively.

[4] = system: Proteus vulgaris OX19; experiment: as above; assay type: cell-based
Description: as §1, §2

[5] = system: S. aureus Smith; experiment: as above; assay type: cell-based; details: Staphylococcus aureus; Table 3; 27° C., 18 hours
Description: as §1, §2

[6] = system: Salmonella typhi T-63; experiment: as above; assay type: cell-based; details: Salmonella enterica, Table 3, 27° C., 18 hours
Description: as §1, §2

[7] = system: S. epidermidis 109; experiment: as above; assay type: cell-based
Description: as §1, §2

[8] = system: Serratia marcescens; experiment: as above; assay type: cell-based; details: Table 3, 27° C., 18 hours, read-out: MIC
Description: as §1, §2

[9] = system: E. coli K-12 ML1629; experiment: as above; assay type: cell-based; details: Escherichia coli, K12ML1629; Table 3; 27° C., 18 hours; read-out: MIC
Description: as §1, §2

[10] = system: Bacillus subtilis PCI219; experiment: as above; assay type: cell-based; details: Table 3, 27° C., 18 hours
Description: as §1, §2

[11] = system: P. aeruginosa TI-13; experiment: as above; assay type: cell-based; details: Pseudomonas aeruginosa, TI13, 18 h
Description: as §1, §2

[12] = system: E. coli JR66/W677; experiment: as above; assay type: cell-based; details: Escherichia coli, JR66/W677, 18 h
Description: as §1, §2

[13] = system: Escherichia coli NIHJ; experiment: as above; assay type: cell-based; details: Table 3, 27° C., 18 hours
Description: as §1, §2

[14] = system: Pseudomonas aeruginosa A3; experiment: as above; assay type: cell-based
Description: as §1, §2

[15] = system: P. aeruginosa PST1; experiment: as above; assay type: cell-based; details: Pseudomonas aeruginosa, Table 3, 27° C., 18 hours
Description: as §1, §2

[16] = system: Staphylococcus aureus FDA209P; experiment: as above; assay type: cell-based; details: Table 3, 27° C., 18 hours
Description: as §1, §2

[17] = system: E. coli K-12 LA290 R55; experiment: as above; assay type: cell-based; details: Escherichia coli, K12LA290R55, 18 h
Description: as §1, §2

[18] = system: Shigella dysenteriae JSI1910; experiment: as above; assay type: cell-based; details: JSI1910, 18 h
Description: as §1, §2

[19] = system: P. aeruginosa H9; experiment: as above; assay type: cell-based; details: Pseudomonas aeruginosa, H9; Table 3; 27° C., 18 hours; read-out: MIC
Description: as §1, §2

[20] = system: Klebsiella pneumoniae PCI602; experiment: as above; assay type: cell-based; details: PCI602, 18 h
Description: as §1, §2

[21] = system: B. cereus ATCC10702; experiment: as above; assay type: cell-based; details: Bacillus cereus
Description: as §1

[22] = system: E. coli K-12 ML1410; experiment: as above; assay type: cell-based; details: Escherichia coli, K12ML1410; Table 3; 27° C., 18 hours
Description: as §1

[23] = system: clinically isolated strains of MRSA; experiment: Antibacterial MIC spectra against 50 clinically isolated strains of MRSA; assay type: cell-based, methicillin-resistant Staphylococcus aureus; details: Staphylococcus aureus; for MIC90: 90% of the 50 MRSA strains inhibited, read-out: MIC90; for MIC: range over 50 clinically isolated strains of MRSA, read-out: Antibacterial MIC spectra
Description: as §1
Note:- MIC50 or MIC90 represents the concentration of tested
active compound at which 50% or 90% of the total numbers of the bacterial
strains tested were inhibited from their growth. DKB denotes dibekacin,
as §2

Row | Compound | Solubility [1] | LD50 at 336 h [2] [mg/kg] | MIC [5] [µg/mL] | MIC [6] [µg/mL] | MIC [8] [µg/mL] | MIC [9] [µg/mL] | MIC [10] [µg/mL] | MIC [11] [µg/mL] | MIC [12] [µg/mL] | MIC [13] [µg/mL] | MIC [15] [µg/mL] | MIC [16] [µg/mL] | MIC [17] [µg/mL] | MIC [18] [µg/mL] | MIC [19] [µg/mL] | MIC [20] [µg/mL] | MIC [22] [µg/mL] | MIC90 ([23]; 27° C., 18 hours) [µg/mL] | MIC ([23]; 27° C., 18 hours) [µg/mL] | also measured
1 | NC[C@@H]1CC[C@@H](N)[C@@H](O[C@H]2[C@H](O)[C@@H](O[C@H]3O[C@H](CO)[C@@H](O)[C@H](N)[C@H]3N)[C@H](N)C[C@@H]2N)O1 [Compound IIa, 2"-Amino-2"-deoxydibekacin] | easily soluble in water | > 100 | 0.39 (≈ 0.866 µM) | 1.56 (≈ 3.46 µM) | 12.5 (≈ 27.7 µM) | 3.13 (≈ 6.95 µM) | ≤ 0.2 | 3.13 (≈ 6.95 µM) | 3.13 (≈ 6.95 µM) | 0.78 (≈ 1.73 µM) | 50 (≈ 111 µM) | 0.78 (≈ 1.73 µM) | 1.56 (≈ 3.46 µM) | 3.13 (≈ 6.95 µM) | 6.25 (≈ 13.9 µM) | 3.13 (≈ 6.95 µM) | 1.56 (≈ 3.46 µM) | 25 (≈ 55.5 µM) | 0.2 to 50 (≈ 0.444 to 111 µM) | MIC ([3]; GN311, 18 h): 1.56 µg/mL (≈ 3.46 µM); MIC ([4]; OX19, 18 h): 1.56 µg/mL (≈ 3.46 µM); MIC ([7]; Staphylococcus epidermidis, 109, 18 h): 1.56 µg/mL (≈ 3.46 µM); MIC ([14]; A3, 18 h): 1.56 µg/mL (≈ 3.46 µM); MIC ([21]; ATCC10702, 18 h): 3.13 µg/mL (≈ 6.95 µM); MIC50 ([23]; 50% of the 50 MRSA strains inhibited, 27° C., 18 hours, read-out: MIC50): 6.25 µg/mL (≈ 13.9 µM)
2 | NC[C@@H]1CC[C@@H](N)[C@@H](O[C@H]2C[C@@H](O[C@H]3O[C@H](CO)[C@@H](O)[C@H](N)[C@H]3N)[C@H](N)C[C@@H]2N)O1 [Compound IIb, 2"-Amino-5,2"-dideoxydibekacin] | easily soluble in water | 50 to 100 | ≤ 0.2 | 3.13 (≈ 7.2 µM) | 25 (≈ 57.5 µM) | 6.25 (≈ 14.4 µM) | ≤ 0.2 | 3.13 (≈ 7.2 µM) | 6.25 (≈ 14.4 µM) | 1.56 (≈ 3.59 µM) | 100 (≈ 230 µM) | 0.39 (≈ 0.898 µM) | 3.13 (≈ 7.2 µM) | 6.25 (≈ 14.4 µM) | 12.5 (≈ 28.8 µM) | 3.13 (≈ 7.2 µM) | 3.13 (≈ 7.2 µM) | 25 (≈ 57.5 µM) | 0.78 to 25 (≈ 1.8 to 57.5 µM) | MIC ([3]; GN311, Table 3, 27° C., 18 hours, read-out: MIC): 1.56 µg/mL (≈ 3.59 µM); MIC ([4]; OX19, Table 3, 27° C., 18 hours, read-out: MIC): 1.56 µg/mL (≈ 3.59 µM); MIC ([7]; Staphylococcus epidermidis, 109, Table 3, 27° C., 18 hours, read-out: MIC): 0.78 µg/mL (≈ 1.8 µM); MIC ([14]; A3, Table 3, 27° C., 18 hours, read-out: MIC): 0.78 µg/mL (≈ 1.8 µM); MIC ([21]; ATCC10702, Table 3, 27° C., 18 hours, read-out: MIC): 1.56 µg/mL (≈ 3.59 µM); MIC50 ([23]; MRSA, 18 h): 3.13 µg/mL (≈ 7.2 µM)
